Data taken from patent EP4640678A1, “NOVEL OXO-PYRIDINE COMPOUND, PREPARATION METHOD THEREFOR, AND USE THEREOF” (Chengdu Shibeikang Biomedical Technology Co., Ltd., priority 2022, dated 2024).

Experiments:
[1] = Effect of continuous in-vivo administration on general condition and food intake of rats; details: for Food intake (g, mean±SD) / food intake compared with the blank group: 500 mg/kg PO once a day for 14 days, within 24 hours after the last administration
Excerpt: Each group had 10 rats, equally distributed by gender. The rats received drug administrations via oral gavage once a day for 14 consecutive days, following the administration regimen outlined in the table below. The blank group was given an equal volume of a vehicle. […] Table 4 Continuous administration regimen

human FXla = human FXla (Homo sapiens, UniProt P03951); experiment: Activity assay of coagulation factor FXla inhibitor (S-2366 substrate, OD405nm); type: biochemical; details: 5 concentrations 200 nM to 0.32 nM, 0.8 nM (2X) human FXla working solution
Excerpt: X: log value of compound concentration; Y: inhibition rate (%).

human plasma = experiment: determination of in-vitro anticoagulant effect in human plasma (APTT); type: biochemical; details: for APTT prolongation rate (%): healthy human plasma, 37°C for 3 min; for EC150: estimated from the APTT test results in human plasma
Experimental: After centrifugation, the plasma sample was pipetted and frozen (-80°C) for later use.
A proper amount of a compound was weighed and prepared into a 10-100 mM stock solution using 100% of DMSO (the specific concentration of the stock solution was determined based on the properties of the compound); and then working solutions with various concentrations (specifically: 1 µM, 3 µM and 10 µM, respectively) were prepared from the stock solution using the healthy human plasma as a solution and thoroughly mixed. After incubation at 37°C for 3 min, the sample was placed on an instrument (model: CS-2000I) to determine APTT.
GraphPad Prism software was used for analysis to calculate the APTT prolongation rate at each concentration.

[2] = Study of pharmacokinetics in rats; type: in vivo; details: rat, po; male SD rats, intragastrical gavage, 30 mg/kg, plasma
Experimental: Each group was administered via intragastrical gavage at a dose of 30 mg/kg.
About 0.5 mL of blood was collected, placed in an EDTA-K2 tube, centrifuged to separate plasma, and stored at -80°C. The drug plasma concentration was measured using a liquid chromatography-tandem mass spectrometry analysis system (LC-MS/MS), and pharmacokinetic parameters, such as AUC0-t, Cmax, Tmax and t1/2, were calculated based on the drug plasma concentration data using DAS 2.0 software.

Sequence of human FXla (P03951 388-625 limits assumed): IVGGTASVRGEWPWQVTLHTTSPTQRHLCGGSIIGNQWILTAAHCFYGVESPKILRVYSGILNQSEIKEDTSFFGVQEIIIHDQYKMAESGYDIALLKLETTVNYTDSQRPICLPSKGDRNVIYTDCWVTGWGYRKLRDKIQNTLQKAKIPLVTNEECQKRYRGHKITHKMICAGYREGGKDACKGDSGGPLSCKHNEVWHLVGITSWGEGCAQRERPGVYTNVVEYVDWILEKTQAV
Sequence of human FXla (P03951 19-387 partner limits assumed): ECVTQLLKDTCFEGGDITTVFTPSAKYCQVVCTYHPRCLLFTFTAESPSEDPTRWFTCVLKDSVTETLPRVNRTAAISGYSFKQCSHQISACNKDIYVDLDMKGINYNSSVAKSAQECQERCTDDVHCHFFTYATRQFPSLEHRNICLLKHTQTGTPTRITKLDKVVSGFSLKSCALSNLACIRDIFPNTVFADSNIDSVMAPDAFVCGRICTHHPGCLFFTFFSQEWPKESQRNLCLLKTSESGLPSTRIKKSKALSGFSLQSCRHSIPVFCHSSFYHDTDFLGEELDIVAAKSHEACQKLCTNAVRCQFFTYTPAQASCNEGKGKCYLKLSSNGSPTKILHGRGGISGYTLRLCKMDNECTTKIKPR

| Compound | IC50 (human FXla) [nM] | APTT prolongation rate (%) (human plasma; 3 µM) | APTT prolongation rate (%) (human plasma; 10 µM) | APTT prolongation rate (%) (human plasma; 1 µM) | further results |
| --- | --- | --- | --- | --- | --- |
| CC[C@@H](C(=O)Nc1ccc(C(N)=O)c(F)c1)n1cc(OC)c(-c2cc(Cl)ccc2-n2cc(C(F)(F)F)nn2)cc1=O [Comparative example 1, (S)-4-(2-(4-(5-chloro-2-(4-(trifluoromethyl)-1H-1,2,3-triazol-1-yl)phenyl)-5-methoxy-2-oxopyridin-1(2H)-yl)butanamido)-2-fluorobenzamide, reference compound] | – | – | – | – | Food intake (g, mean±SD) [1]: 24.98 ± 0.92 g; general condition of the rats ([1]; SD rats, 500 mg/kg PO once a day for 14 consecutive days): piloerection and hypoactivity were found in 1/3 or more of the rats; food intake compared with the blank group ([1]; SD rats): significantly reduced food intake |
| CC[C@@H](C(=O)Nc1ccc(C(N)=O)c(Cl)c1)n1cc(OC)c(-c2cc(Cl)ccc2-n2cc(C(F)(F)F)nn2)cc1=O [Compound 1, (S)-2-chloro-4-(2-(4-(5-chloro-2-(4-(trifluoromethyl)-1H-1,2,3-triazol-1-yl)phenyl)-5-methoxy-2-oxopyridin-1(2H)-yl)butanamido)benzamide] | 7.53 | 65.8 | 136.5 | – | EC150 (human plasma): less than 1 µM |
| CC[C@@H](C(=O)Nc1ccc(C(N)=O)c(OC)c1)n1cc(OC)c(-c2cc(Cl)ccc2-n2cc(C(F)(F)F)nn2)cc1=O [Compound 5, (S)-4-(2-(4-(5-chloro-2-(4-(trifluoromethyl)-1H-1,2,3-triazol-1-yl)phenyl)-5-methoxy-2-oxopyridin-1(2H)-yl)butanamido)-2-methoxybenzamide] | 5.6 | 84.6 | 125.8 | – | EC150 (human plasma): less than 1 µM |
| CC[C@@H](C(=O)Nc1ccc(C(=O)O)c(OC)c1)n1cc(OC)c(-c2cc(Cl)ccc2-n2cc(C(F)(F)F)nn2)cc1=O [Compound 6, (S)-4-(2-(4-(5-chloro-2-(4-(trifluoromethyl)-1H-1,2,3-triazol-1-yl)phenyl)-5-methoxy-2-oxopyridin-1(2H)-yl)butanamido)-2-methoxybenzoic acid] | 0.96 | 78.0 | 135.1 | – | AUC(0-t) [2]: 89800 ng·h/mL; Cmax [2]: 6440 ng/mL; Tmax [2]: 4.1 h; half-life [2]: 7.08 h; EC150 (human plasma): less than 1 µM |
| CC[C@@H](C(=O)Nc1ccc(C(=O)O)c(Cl)c1)n1cc(OC)c(-c2cc(Cl)ccc2-n2cc(Cl)nn2)cc1=O [Compound 9, (S)-2-chloro-4-(2-(4-(5-chloro-2-(4-chloro-1H-1,2,3-triazol-1-yl)phenyl)-5-methoxy-2-oxopyridin-1(2H)-yl)butanamido)benzoic acid] | 6.32 | 69.5 | 103.8 | 44.3 | – |
| CC[C@@H](C(=O)Nc1ccc(C(N)=O)cc1F)n1cc(OC)c(-c2cc(Cl)ccc2-n2cc(C(F)(F)F)nn2)cc1=O [Compound 13, (S)-4-(2-(4-(5-chloro-2-(4-(trifluoromethyl)-1H-1,2,3-triazol-1-yl)phenyl)-5-methoxy-2-oxopyridin-1(2H)-yl)butanamido)-3-fluorobenzamide] | 25.5 | 80.2 | 175.9 | – | EC150 (human plasma): less than 1 µM |
| CC[C@@H](C(=O)Nc1ccc(C(N)=O)cc1Cl)n1cc(OC)c(-c2cc(Cl)ccc2-n2cc(C(F)(F)F)nn2)cc1=O [Compound 16, (S)-3-chloro-4-(2-(4-(5-chloro-2-(4-(trifluoromethyl)-1H-1,2,3-triazol-1-yl)phenyl)-5-methoxy-2-oxopyridin-1(2H)-yl)butanamido)-benzamide] | – | 11.7 | 26.8 | 7.0 | – |
| CC[C@@H](C(=O)Nc1ccc(C(=O)NC)c(F)c1)n1cc(OC)c(-c2cc(Cl)ccc2-n2cc(C(F)(F)F)nn2)cc1=O [Compound 17, (S)-4-(2-(4-(5-chloro-2-(4-(trifluoromethyl)-1H-1,2,3-triazol-1-yl)phenyl)-5-methoxy-2-oxopyridin-1(2H)-yl)butanamido)-2-fluoro-N-methylbenzamide] | 1.65 | 82.6 | 145.3 | – | EC150 (human plasma): less than 1 µM |
| CC[C@@H](C(=O)Nc1ccc(C(=O)NC)c(OC)c1)n1cc(OC)c(-c2cc(Cl)ccc2-n2cc(C(F)(F)F)nn2)cc1=O [Compound 18, (S)-4-(2-(4-(5-chloro-2-(4-(trifluoromethyl)-1H-1,2,3-triazol-1-yl)phenyl)-5-methoxy-2-oxopyridin-1(2H)-yl)butanamido)-2-methoxy-N-methylbenzamide] | 9.06 | 46.1 | 90.6 | 33.2 | – |
| CC[C@@H](C(=O)Nc1ccc(C(=O)NC)cc1F)n1cc(OC)c(-c2cc(Cl)ccc2-n2cc(C(F)(F)F)nn2)cc1=O [Compound 19, (S)-4-(2-(4-(5-chloro-2-(4-(trifluoromethyl)-1H-1,2,3-triazol-1-yl)phenyl)-5-methoxy-2-oxopyridin-1(2H)-yl)butanamido)-3-fluoro-N-methylbenzamide] | – | 44.0 | 77.1 | 24.2 | – |
| CC[C@@H](C(=O)Nc1cc(F)c(C(=O)NC)c(F)c1)n1cc(OC)c(-c2cc(Cl)ccc2-n2cc(C(F)(F)F)nn2)cc1=O [Compound 20, (S)-4-(2-(4-(5-chloro-2-(4-(trifluoromethyl)-1H-1,2,3-triazol-1-yl)phenyl)-5-methoxy-2-oxopyridin-1(2H)-yl)butanamido)-2,6-difluoro-N-methylbenzamide] | – | 49.2 | 98.6 | 19.2 | – |
| [2H]C([2H])([2H])Oc1cn([C@@H](CC)C(=O)Nc2ccc(C(N)=O)c(F)c2)c(=O)cc1-c1cc(Cl)ccc1-n1cc(C(F)(F)F)nn1 [Compound 21, (S)-4-(2-(4-(5-chloro-2-(4-(trifluoromethyl)-1H-1,2,3-triazol-1-yl)phenyl)-5-(methoxy-d3)-2-oxopyridin-1(2H)-yl)butanamido)-2-fluorobenzamide] | – | – | – | – | Food intake (g, mean±SD) [1]: 27.08 ± 1.23 g; food intake compared with the blank group ([1]; SD rats): essentially the same food intake as the blank group |
| [2H]C([2H])([2H])Oc1cn([C@@H](CC)C(=O)Nc2ccc(C(N)=O)c(Cl)c2)c(=O)cc1-c1cc(Cl)ccc1-n1cc(C(F)(F)F)nn1 [Compound 22, (S)-2-chloro-4-(2-(4-(5-chloro-2-(4-(trifluoromethyl)-1H-1,2,3-triazol-1-yl)phenyl)-5-(methoxy-d3)-2-oxopyridin-1(2H)-yl)butanamido)benzamide] | 4.23 | 62.0 | 105.9 | 35.6 | – |
| [2H]C([2H])([2H])Oc1cn([C@@H](CC)C(=O)Nc2ccc(C(N)=O)cc2F)c(=O)cc1-c1cc(Cl)ccc1-n1cc(C(F)(F)F)nn1 [Compound 23, (S)-4-(2-(4-(5-chloro-2-(4-(trifluoromethyl)-1H-1,2,3-triazol-1-yl)phenyl)-5-(methoxy-d3)-2-oxopyridin-1(2H)-yl)butanamide)-3-fluorobenzamide] | – | 81.2 | 168.0 | 48.8 | – |
| [2H]C([2H])([2H])Oc1cn([C@@H](CC)C(=O)Nc2ccc(C(=O)NC)cc2F)c(=O)cc1-c1cc(Cl)ccc1-n1cc(C(F)(F)F)nn1 [Compound 24, (S)-4-(2-(4-(5-chloro-2-(4-(trifluoromethyl)-1H-1,2,3-triazol-1-yl)phenyl)-5-(methoxy-d3)-2-oxopyridin-1(2H)-yl)butanamido)-3-fluoro-N-methylbenzamide] | – | 73.2 | 132.5 | 35.1 | – |
| [2H]C([2H])([2H])NC(=O)c1ccc(NC(=O)[C@@H](n2cc(OC([2H])([2H])[2H])c(-c3cc(Cl)ccc3-n3cc(C(F)(F)F)nn3)cc2=O)C([2H])([2H])C([2H])([2H])[2H])cc1F [Compound 30, (S)-4-(2-(4-(5-chloro-2-(4-(trifluoromethyl)-1H-1,2,3-triazol-1-yl)phenyl)-5-(methoxy-d3)-2-oxopyridin-1(2H)-yl)butanamido-3,3,4,4,4-d5)-2-fluoro-N-(methyl-d3)benzamide] | – | 79.0 | 138.4 | 48.1 | – |
| (S)-4-(2-(4-(5-chloro-2-(4-(trifluoromethyl)-1H-1,2,3-triazol-1-yl)phenyl)-5-methoxy-2-oxopyridin-1(2H)-yl)butanamido)-3,6-difluorobenzamide [Compound 14] | – | 9.1 | 18.5 | 0.9 | – |
